According to paper PMC10937199 (ESMO Open, 2024):

How the values were obtained:
DNA-PK = conditions: previous studies; cited from earlier work
[1] = system: patients with advanced solid tumors; assay: Safety; assay type: in vivo, human; conditions: Part B

COc1ccc([C@@H](O)c2cc(-c3ncnc4cc(N5CCOCC5)ccc34)c(F)cc2Cl)nn1 [Peposertib]
DNA-PK inhibition (DNA-PK): time- and concentration-dependent manner | IRR ([1]; 100 mg q.d., all grade): 2 (66.7) n (%) | Immune-related AE ([1]; 100 mg q.d., all grade): 0 n (%) | Serious TEAE ([1]; 100 mg q.d., all grade): 2 (66.7) n (%) | Serious TEAE, peposertib related ([1]; 100 mg q.d., all grade): 0 n (%) | Serious TEAE, radiotherapy related ([1]; 100 mg q.d., all grade): 0 n (%) | Serious TEAE, treatment related ([1]; 100 mg q.d., all grade): 1 (33.3) n (%) | TEAE ([1]; 100 mg q.d., all grade): 3 (100.0) n (%) | TEAE, peposertib related ([1]; 100 mg q.d., all grade): 2 (66.7) n (%) | TEAE, radiotherapy related ([1]; 100 mg q.d., all grade): 1 (33.3) n (%) | TEAE, treatment related ([1]; 100 mg q.d., all grade): 3 (100.0) n (%) | TEAEs leading to death ([1]; 100 mg q.d., all grade): 0 n (%) | Treatment-related AE leading to death ([1]; 100 mg q.d., all grade): 0 n (%) | IRR ([1]; 100 mg q.d., grade ≥3): 0 n (%) | Immune-related AE ([1]; 100 mg q.d., grade ≥3): 0 n (%) | Serious TEAE ([1]; 100 mg q.d., grade ≥3): 2 (66.7) n (%) | Serious TEAE, peposertib related ([1]; 100 mg q.d., grade ≥3): 0 n (%) | Serious TEAE, radiotherapy related ([1]; 100 mg q.d., grade ≥3): 0 n (%) | Serious TEAE, treatment related ([1]; 100 mg q.d., grade ≥3): 1 (33.3) n (%) | TEAE ([1]; 100 mg q.d., grade ≥3): 2 (66.7) n (%) | TEAE, peposertib related ([1]; 100 mg q.d., grade ≥3): 0 n (%) | TEAE, radiotherapy related ([1]; 100 mg q.d., grade ≥3): 0 n (%) | TEAE, treatment related ([1]; 100 mg q.d., grade ≥3): 1 (33.3) n (%) | TEAEs leading to death ([1]; 100 mg q.d., grade ≥3): 0 n (%) | Treatment-related AE leading to death ([1]; 100 mg q.d., grade ≥3): 0 n (%) | IRR ([1]; 150 mg q.d., all grade): 1 (33.3) n (%) | Immune-related AE ([1]; 150 mg q.d., all grade): 0 n (%) | Serious TEAE ([1]; 150 mg q.d., all grade): 1 (33.3) n (%) | Serious TEAE, peposertib related ([1]; 150 mg q.d., all grade): 0 n (%) | Serious TEAE, radiotherapy related ([1]; 150 mg q.d., all grade): 0 n (%) | Serious TEAE, treatment related ([1]; 150 mg q.d., all grade): 1 (33.3) n (%) | TEAE ([1]; 150 mg q.d., all grade): 3 (100.0) n (%) | TEAE, peposertib related ([1]; 150 mg q.d., all grade): 1 (33.3) n (%) | TEAE, radiotherapy related ([1]; 150 mg q.d., all grade): 1 (33.3) n (%) | TEAE, treatment related ([1]; 150 mg q.d., all grade): 3 (100.0) n (%) | TEAEs leading to death ([1]; 150 mg q.d., all grade): 0 n (%) | Treatment-related AE leading to death ([1]; 150 mg q.d., all grade): 0 n (%) | IRR ([1]; 150 mg q.d., grade ≥3): 0 n (%) | Immune-related AE ([1]; 150 mg q.d., grade ≥3): 0 n (%) | Serious TEAE ([1]; 150 mg q.d., grade ≥3): 1 (33.3) n (%) | Serious TEAE, peposertib related ([1]; 150 mg q.d., grade ≥3): 0 n (%) | Serious TEAE, radiotherapy related ([1]; 150 mg q.d., grade ≥3): 0 n (%) | Serious TEAE, treatment related ([1]; 150 mg q.d., grade ≥3): 1 (33.3) n (%) | TEAE ([1]; 150 mg q.d., grade ≥3): 2 (66.7) n (%) | TEAE, peposertib related ([1]; 150 mg q.d., grade ≥3): 1 (33.3) n (%) | TEAE, radiotherapy related ([1]; 150 mg q.d., grade ≥3): 1 (33.3) n (%) | TEAE, treatment related ([1]; 150 mg q.d., grade ≥3): 2 (66.7) n (%) | TEAEs leading to death ([1]; 150 mg q.d., grade ≥3): 0 n (%) | Treatment-related AE leading to death ([1]; 150 mg q.d., grade ≥3): 0 n (%) | IRR ([1]; 200 mg q.d., all grade): 2 (50.0) n (%) | Immune-related AE ([1]; 200 mg q.d., all grade): 1 (25.0) n (%) | Serious TEAE ([1]; 200 mg q.d., all grade): 1 (25.0) n (%) | Serious TEAE, peposertib related ([1]; 200 mg q.d., all grade): 0 n (%) | Serious TEAE, radiotherapy related ([1]; 200 mg q.d., all grade): 0 n (%) | Serious TEAE, treatment related ([1]; 200 mg q.d., all grade): 0 n (%) | TEAE ([1]; 200 mg q.d., all grade): 4 (100.0) n (%) | TEAE, peposertib related ([1]; 200 mg q.d., all grade): 2 (50.0) n (%) | TEAE, radiotherapy related ([1]; 200 mg q.d., all grade): 3 (75.0) n (%) | TEAE, treatment related ([1]; 200 mg q.d., all grade): 4 (100.0) n (%) | TEAEs leading to death ([1]; 200 mg q.d., all grade): 0 n (%) | Treatment-related AE leading to death ([1]; 200 mg q.d., all grade): 0 n (%) | IRR ([1]; 200 mg q.d., grade ≥3): 0 n (%) | Immune-related AE ([1]; 200 mg q.d., grade ≥3): 0 n (%) | Serious TEAE ([1]; 200 mg q.d., grade ≥3): 1 (25.0) n (%) | Serious TEAE, peposertib related ([1]; 200 mg q.d., grade ≥3): 0 n (%) | Serious TEAE, radiotherapy related ([1]; 200 mg q.d., grade ≥3): 0 n (%) | Serious TEAE, treatment related ([1]; 200 mg q.d., grade ≥3): 0 n (%) | TEAE ([1]; 200 mg q.d., grade ≥3): 1 (25.0) n (%) | TEAE, peposertib related ([1]; 200 mg q.d., grade ≥3): 0 n (%) | TEAE, radiotherapy related ([1]; 200 mg q.d., grade ≥3): 0 n (%) | TEAE, treatment related ([1]; 200 mg q.d., grade ≥3): 0 n (%) | TEAEs leading to death ([1]; 200 mg q.d., grade ≥3): 0 n (%) | Treatment-related AE leading to death ([1]; 200 mg q.d., grade ≥3): 0 n (%) | Peposertib-related pneumonitis ([1]; 250 mg q.d.): 11.1% | Serious TEAE: dehydration ([1]; 250 mg q.d.): 2/9 | IRR ([1]; 250 mg q.d., all grade): 3 (33.3) n (%) | Immune-related AE ([1]; 250 mg q.d., all grade): 2 (22.2) n (%) | Serious TEAE ([1]; 250 mg q.d., all grade): 6 (66.7) n (%) | Serious TEAE, peposertib related ([1]; 250 mg q.d., all grade): 1 (11.1) n (%) | Serious TEAE, radiotherapy related ([1]; 250 mg q.d., all grade): 1 (11.1) n (%) | Serious TEAE, treatment related ([1]; 250 mg q.d., all grade): 2 (22.2) n (%) | TEAE ([1]; 250 mg q.d., all grade): 9 (100.0) n (%) | TEAE, peposertib related ([1]; 250 mg q.d., all grade): 5 (55.6) n (%) | TEAE, radiotherapy related ([1]; 250 mg q.d., all grade): 5 (55.6) n (%) | TEAE, treatment related ([1]; 250 mg q.d., all grade): 8 (88.9) n (%) | TEAEs leading to death ([1]; 250 mg q.d., all grade): 0 n (%) | Treatment-related AE leading to death ([1]; 250 mg q.d., all grade): 0 n (%) | IRR ([1]; 250 mg q.d., grade ≥3): 1 (11.1) n (%) | Immune-related AE ([1]; 250 mg q.d., grade ≥3): 2 (22.2) n (%) | Serious TEAE ([1]; 250 mg q.d., grade ≥3): 6 (66.7) n (%) | Serious TEAE, peposertib related ([1]; 250 mg q.d., grade ≥3): 1 (11.1) n (%) | Serious TEAE, radiotherapy related ([1]; 250 mg q.d., grade ≥3): 1 (11.1) n (%) | Serious TEAE, treatment related ([1]; 250 mg q.d., grade ≥3): 2 (22.2) n (%) | TEAE ([1]; 250 mg q.d., grade ≥3): 7 (77.8) n (%) | TEAE, peposertib related ([1]; 250 mg q.d., grade ≥3): 1 (11.1) n (%) | TEAE, radiotherapy related ([1]; 250 mg q.d., grade ≥3): 1 (11.1) n (%) | TEAE, treatment related ([1]; 250 mg q.d., grade ≥3): 3 (33.3) n (%) | TEAEs leading to death ([1]; 250 mg q.d., grade ≥3): 0 n (%) | Treatment-related AE leading to death ([1]; 250 mg q.d., grade ≥3): 0 n (%) | Discontinuation of all study treatments due to AEs ([1]; all dose levels): 6 (31.6%) | Peposertib-related TEAE: nausea ([1]; all dose levels): 5 (26.3%) | Peposertib-related TEAE: vomiting ([1]; all dose levels): 3 (15.8%)
